Assay results published in patent US20260001914A1, “MACROCYCLIC PEPTIDES TARGETING KRAS” (Merck Sharp & Dohme LLC, priority 2022, published 2026).
*1 amine or outer side, *2 acyl side, *3 side chain or, on linkers, in order; H or OH if unused. Where a SMILES comes first, the peptide text is derived from it. Bridges are numbered along the chain shown (N, C = ends). [ ]: non-standard residue; d: D form. Phe(4-guanidino) = N=C(N)Nc1ccc(C[C@H](N)C(=O)O)cc1; Ala(pyrimidin-5-yl) = N[C@@H](Cc1cncnc1)C(=O)O; X39 = CN([C@@H](Cc1cccnc1F)C(=O)[*:2])[*:1]; Lys(N3) = [N-]=[N+]=NCCCC[C@H](N)C(=O)O; NMeAha = CN[C@@H](CCN=[N+]=[N-])C(=O)O; X2 = O=C([C@H](Cc1ccccc1F)O[*:1])[*:2]; X32 = CS(=O)(=O)CCCN(CC(=O)[*:2])[*:1]; X40 = CC(C)(F)C[C@H](N[*:1])C(=O)[*:2]; X21 = O=C([C@@H]1C[C@H]1CN[*:1])[*:2]; X35 = CN([C@@H](CCCF)C(=O)[*:2])[*:1]; Ala(cPent) = N[C@@H](CC1CCCC1)C(=O)O; Phe(2-F) = N[C@@H](Cc1ccccc1F)C(=O)O; X31 = O=C([C@H](CCC1CC1)N[*:1])[*:2]; NMe3Pal = CN[C@@H](Cc1cccnc1)C(=O)O; X1 = O=C(C12CC(CN[*:1])(C1)C2)[*:2]; NMeAad = CN[C@@H](CCCC(=O)O)C(=O)O; Aha = [N-]=[N+]=NCC[C@H](N)C(=O)O; NMeR = CN[C@@H](CCCNC(=N)N)C(=O)O; Ala(cPr) = N[C@@H](CC1CC1)C(=O)O; NMeF = CN[C@@H](Cc1ccccc1)C(=O)O; PhLac = O=C(O)[C@@H](O)Cc1ccccc1; 3Pal = N[C@@H](Cc1cccnc1)C(=O)O; Ahp(2) = CCCCC[C@H](N)C(=O)O; Cba = N[C@@H](CC1CCC1)C(=O)O; NMeNle = CCCC[C@H](NC)C(=O)O; hLeu = CC(C)CC[C@H](N)C(=O)O; NMeS = CN[C@@H](CO)C(=O)O; αMeC = C[C@](N)(CS)C(=O)O; NMeA = CN[C@@H](C)C(=O)O; Nle = CCCC[C@H](N)C(=O)O

Target: phosphorylation levels of ERK1/2 in AsPC-1 (homozygous KRAS-G12D) cells (Homo sapiens, UniProt P01116, G12D)
Assay: Cellular phospho-ERK assay in AsPC-1 cells (Alpha Screen), assay medium without fetal bovine serum;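 also: signal taken as phospho-ERK over total ERK per well, both detected in one multiplex bead assay, EC50 from four-parameter logistic fit of dose-response curves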
Format: cell-based
Conditions: phospho-ERK AlphaScreen, 18 h

Chain of phosphorylation levels of ERK1/2 in AsPC-1 (homozygous KRAS-G12D) cells (P01116 1-186 G12D): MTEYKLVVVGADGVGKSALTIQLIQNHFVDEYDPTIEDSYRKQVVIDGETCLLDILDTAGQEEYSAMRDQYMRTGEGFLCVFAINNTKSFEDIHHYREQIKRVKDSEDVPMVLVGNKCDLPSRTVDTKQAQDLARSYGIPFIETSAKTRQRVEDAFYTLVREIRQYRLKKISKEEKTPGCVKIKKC

Row | SMILES | EC50 [µM]
1 | CCCC[C@@H]1NC(=O)[C@H](Cc2ccc(O)cc2)NC(=O)[C@H](CC2CCCCC2)NC(=O)[C@H](CCCCN)NC(=O)[C@H](CCCNC(=N)N)NC(=O)[C@H](Cc2cccc3ccccc23)NC(=O)CSC[C@H](C(N)=O)NC(=O)[C@H](Cc2ccccc2)N(C)C1=O [compound 139, cyclo(INal-R-K-Cha-Y-Nle-NMeF-dCl-ClAc)] | > 50.8
2 | CC(C)CC[C@@H]1NC(=O)[C@H](Cc2ccccc2F)NC(=O)[C@H](CC2CCC2)NC(=O)[C@H](Cc2cncnc2)NC(=O)[C@H](C)N(C)C(=O)[C@H](Cc2ccccc2)OC(=O)C23CC(CNC(=O)[C@H](Cc4ccccc4)N(C)C1=O)(C2)C3 [compound 134, cyclo(FLac-NMeA-PyrimAla-cBuA-Phe2F-hL-NMeF-amBCP)] (cyclo([Cba][Phe(2-F)][hLeu][NMeF][X1][PhLac][NMeA][Ala(pyrimidin-5-yl)])) | 0.33
3 | CCCC[C@@H]1NC(=O)[C@H](Cc2cccnc2)NC(=O)[C@H](CCCNC(=N)N)N(C)C(=O)[C@H](Cc2ccccc2)NC(=O)[C@@H]2C[C@H]2CNC(=O)[C@H](Cc2ccccc2)N(C)C(=O)[C@H](CCCCN=[N+]=[N-])NC(=O)[C@H](Cc2ccc(OC)cc2)NC1=O [compound 94, cyclo(F-NMeR-3Pal-Nle-TyrOMe-LysN3-NMeF-tamcPr)] (cyclo(F[NMeR][3Pal][Nle]Y(Me)[Lys(N3)][NMeF][X21])) | > 50.8
4 | CCCC[C@@H]1NC(=O)[C@H](Cc2cccnc2)NC(=O)[C@H](C)N(C)C(=O)[C@H](Cc2cccnc2)NC(=O)C23CC(CNC(=O)[C@H](Cc4cccnc4)N(C)C(=O)[C@H](CCCC)NC(=O)[C@H](Cc4ccccc4F)NC1=O)(C2)C3 [compound 163, cyclo(3Pal-NMeA-3Pal-Nle-Phe2F-Nle-NMe3Pal-amBCP)] (cyclo([3Pal][NMeA][3Pal][Nle][Phe(2-F)][Nle][NMe3Pal][X1])) | > 50.8
5 | CCCCC[C@@H]1NC(=O)[C@H](Cc2ccc(OC)cc2)NC(=O)[C@H](CC2CCC2)NC(=O)[C@H](Cc2cccnc2)NC(=O)[C@H](CCCNC(=N)N)NC(=O)[C@H](Cc2ccccc2F)NC(=O)CSC[C@@](C)(C(N)=O)NC(=O)[C@H](Cc2ccccc2)N(C)C1=O [compound 370, cyclo(Phe2F-R-3Pal-cBuA-TyrOMe-Ahp-NMeF-aMeCl-ClAc)] | > 50.8
6 | CCCCC[C@@H]1NC(=O)[C@H](Cc2ccc(OC)cc2)NC(=O)[C@H](CC2CCC2)NC(=O)[C@H](Cc2ccc(NC(=N)N)cc2)NC(=O)CN(CCCS(C)(=O)=O)C(=O)[C@H](Cc2ccccc2)NC(=O)CSC[C@@](C)(C(N)=O)NC(=O)[C@H](Cc2ccccc2)N(C)C1=O [compound 389, cyclo(F-Mspg-Phe4Gn-cBuA-TyrOMe-Ahp-NMeF-aMeCl-ClAc)] ({CH2CO}-F[X32][Phe(4-guanidino)][Cba]Y(Me)[Ahp(2)][NMeF][αMeC]-NH2; thioether N-8) | > 50.8
7 | C[C@H]1C(=O)N[C@@H](Cc2cncnc2)C(=O)N[C@@H](CC2CC2)C(=O)N[C@@H](Cc2ccccc2F)C(=O)N[C@@H](CCC2CC2)C(=O)N(C)[C@@H](Cc2ccccc2)C(=O)NCC23CC(C2)(C3)C(=O)O[C@@H](Cc2ccccc2)C(=O)N1C [compound 114, cyclo(FLac-NMeA-PyrimAla-cPrA-Phe2F-hcPrA-NMeF-amBCP)] (cyclo([Ala(cPr)][Phe(2-F)][X31][NMeF][X1][PhLac][NMeA][Ala(pyrimidin-5-yl)])) | 0.615
8 | CCCC[C@@H]1NC(=O)[C@H](Cc2cccnc2)NC(=O)[C@H](CCCC(=O)N(C)C)N(C)C(=O)[C@H](Cc2ccccc2)OC(=O)C23CC(CNC(=O)[C@H](Cc4cccnc4)N(C)C(=O)[C@H](CCCC)NC(=O)[C@H](Cc4ccccc4F)NC1=O)(C2)C3 [compound 408, cyclo(FLac-hQdm-3Pal-Nle-Phe2F-Nle-NMe3Pal-amBCP)] (cyclo([3Pal][Nle][Phe(2-F)][Nle][NMe3Pal][X1][PhLac][NMeAad](NMe2))) | > 50.8
9 | CCCCC[C@@H]1NC(=O)[C@H](Cc2ccc(OC)cc2)NC(=O)[C@H](CC2CCC2)NC(=O)[C@H](Cc2cccnc2)NC(=O)[C@H](CCCNC(=N)N)NC(=O)[C@H](Cc2ccccc2)OC(=O)C23CC(CNC(=O)[C@H](Cc4ccccc4)N(C)C1=O)(C2)C3 [compound 211, cyclo(FLac-R-3Pal-cBuA-TyrOMe-Ahp-NMeF-amBCP)] (cyclo([PhLac]R[3Pal][Cba]Y(Me)[Ahp(2)][NMeF][X1])) | > 50.8
10 | CCCCC[C@@H]1NC(=O)[C@H](Cc2ccc(OC)cc2)NC(=O)[C@H](CC2CCC2)NC(=O)[C@H](Cc2cccnc2)NC(=O)[C@H](C)N(C)C(=O)[C@H](Cc2ccccc2)OC(=O)C23CC(CNC(=O)[C@H](Cc4ccccc4)N(C)C1=O)(C2)C3 [compound 227, cyclo(FLac-NMeA-3Pal-cBuA-TyrOMe-Ahp-NMeF-amBCP)] (cyclo([3Pal][Cba]Y(Me)[Ahp(2)][NMeF][X1][PhLac][NMeA])) | 0.886
11 | CCCC[C@@H]1NC(=O)[C@H](Cc2cccnc2)NC(=O)[C@H](CCN=[N+]=[N-])N(C)C(=O)[C@H](Cc2ccccc2)OC(=O)C23CC(CNC(=O)[C@H](Cc4cccnc4)N(C)C(=O)[C@H](CCCC)NC(=O)[C@H](Cc4ccccc4F)OC1=O)(C2)C3 [compound 238, cyclo(FLac-NMeDabN3-3Pal-Nle-F2FLac-Nle-NMe3Pal-amBCP)] (cyclo([3Pal][Nle][X2][Nle][NMe3Pal][X1][PhLac][NMeAha])) | 3.48
12 | CCCC[C@@H]1NC(=O)[C@H](Cc2ccccc2F)NC(=O)[C@H](CCN=[N+]=[N-])NC(=O)[C@H](Cc2cccnc2)NC(=O)[C@H](CCCC)N(C)C(=O)[C@H](Cc2ccccc2)OC(=O)C23CC(CNC(=O)[C@H](Cc4cccnc4)N(C)C1=O)(C2)C3 [compound 243, cyclo(FLac-NMeNle-3Pal-DabN3-Phe2F-Nle-NMe3Pal-amBCP)] (cyclo([3Pal][Aha][Phe(2-F)][Nle][NMe3Pal][X1][PhLac][NMeNle])) | 21.7
13 | CC(C)CC[C@@H]1NC(=O)[C@H](Cc2ccccc2F)NC(=O)[C@H](CC2CC2)NC(=O)[C@H](Cc2cncnc2)NC(=O)[C@H](CCCF)N(C)C(=O)[C@H](Cc2ccccc2)OC(=O)C23CC(CNC(=O)[C@H](Cc4ccccc4)N(C)C1=O)(C2)C3 [compound 216, cyclo(FLac-NMeNvaF-PyrimAla-cPrA-Phe2F-hL-NMeF-amBCP)] (cyclo([Ala(cPr)][Phe(2-F)][hLeu][NMeF][X1][PhLac][X35][Ala(pyrimidin-5-yl)])) | 1.23
14 | CC(C)CC[C@@H]1NC(=O)[C@H](Cc2ccccc2F)NC(=O)[C@H](CC(C)(C)F)NC(=O)[C@H](Cc2cncnc2)NC(=O)[C@H](C)N(C)C(=O)[C@H](Cc2ccccc2)OC(=O)C23CC(CNC(=O)[C@H](Cc4ccccc4)N(C)C1=O)(C2)C3 [compound 136, cyclo(FLac-NMeA-PyrimAla-Leu3F-Phe2F-hL-NMeF-amBCP)] (cyclo([NMeA][Ala(pyrimidin-5-yl)][X40][Phe(2-F)][hLeu][NMeF][X1][PhLac])) | 7.73
15 | CCCCC[C@@H]1NC(=O)[C@H](Cc2ccc(OC)cc2)NC(=O)[C@H](CC2CCC2)NC(=O)[C@H](Cc2cnn(C)c2)NC(=O)[C@H](CCCNC(=N)N)NC(=O)[C@H](Cc2ccccc2)NC(=O)CSC[C@@](C)(C(N)=O)NC(=O)[C@H](Cc2ccccc2)N(C)C1=O [compound 372, cyclo(F-R-Ala4PyzlMe-cBuA-TyrOMe-Ahp-NMeF-aMeCl-ClAc)] | > 50.8
16 | CCCC[C@@H]1NC(=O)[C@H](Cc2cncnc2)NC(=O)[C@H](CO)N(C)C(=O)[C@H](Cc2ccccc2)OC(=O)C23CC(CNC(=O)[C@H](Cc4cccnc4)N(C)C(=O)[C@H](CCCC)NC(=O)[C@H](Cc4ccccc4F)NC1=O)(C2)C3 [compound 119, cyclo(FLac-NMeS-PyrimAla-Nle-Phe2F-Nle-NMe3Pal-amBCP)] (cyclo([NMe3Pal][X1][PhLac][NMeS][Ala(pyrimidin-5-yl)][Nle][Phe(2-F)][Nle])) | > 50.8
17 | CCCCC[C@@H]1NC(=O)[C@H](Cc2ccc(OC)cc2)NC(=O)[C@H](CC2CCC2)NC(=O)[C@H](Cc2ccc(C)nc2)NC(=O)[C@H](CCCNC(=N)N)NC(=O)[C@H](Cc2ccccc2)NC(=O)CSC[C@@](C)(C(N)=O)NC(=O)[C@H](Cc2ccccc2)N(C)C1=O [compound 364, cyclo(F-R-4Me3Pal-cBuA-TyrOMe-Ahp-NMeF-aMeCl-ClAc)] | > 50.8
18 | CC(C)CC[C@@H]1NC(=O)[C@H](Cc2ccccc2F)NC(=O)[C@H](CC2CC2)NC(=O)[C@H](Cc2cncnc2)NC(=O)[C@H](C)N(C)C(=O)[C@H](Cc2ccccc2)OC(=O)C23CC(CNC(=O)[C@H](Cc4cccnc4F)N(C)C1=O)(C2)C3 [compound 336, cyclo(FLac-NMeA-PyrimAla-cPrA-Phe2F-hL-NMe3Pal2F-amBCP)] (cyclo([Ala(cPr)][Phe(2-F)][hLeu][X39][X1][PhLac][NMeA][Ala(pyrimidin-5-yl)])) | 1.39
19 | CC(C)CC[C@@H]1NC(=O)[C@H](Cc2ccccc2F)NC(=O)[C@H](CC2CCCC2)NC(=O)[C@H](Cc2cncnc2)NC(=O)[C@H](C)N(C)C(=O)[C@H](Cc2ccccc2)OC(=O)C23CC(CNC(=O)[C@H](Cc4ccccc4)N(C)C1=O)(C2)C3 [compound 135, cyclo(FLac-NMcA-PyrimAla-cPeA-Phe2F-hL-NMeF-amBCP)] (cyclo([Ala(cPent)][Phe(2-F)][hLeu][NMeF][X1][PhLac][NMeA][Ala(pyrimidin-5-yl)])) | 0.285
20 | CCCC[C@@H]1NC(=O)[C@H](Cc2ccccc2F)NC(=O)[C@H](CC2CCC2)NC(=O)[C@H](Cc2cncnc2)NC(=O)[C@H](C)N(C)C(=O)[C@H](Cc2ccccc2)OC(=O)C23CC(CNC(=O)[C@H](Cc4cccnc4)N(C)C1=O)(C2)C3 [compound 125, cyclo(FLac-NMeA-PyrimAla-cBuA-Phe2F-Nle-NMe3Pal-amBCP)] (cyclo([Cba][Phe(2-F)][Nle][NMe3Pal][X1][PhLac][NMeA][Ala(pyrimidin-5-yl)])) | 45
21 | CCCCC[C@@H]1NC(=O)[C@H](Cc2ccc(OC)cc2)NC(=O)[C@H](CC2CCC2)NC(=O)[C@H](Cc2ccn(C)n2)NC(=O)[C@H](CCCNC(=N)N)NC(=O)[C@H](Cc2ccccc2)NC(=O)CSC[C@@](C)(C(N)=O)NC(=O)[C@H](Cc2ccccc2)N(C)C1=O [compound 362, cyclo(F-R-MePyzAla-cBuA-TyrOMe-Ahp-NMeF-aMeCl-ClAc)] | > 50.8
